Source: patent US5334715A, “1-piperazinyl-2-butenes and -2-butynes” (Hoechst-Roussel Pharmaceuticals Inc., priority 1993, dated 1994)
Structures can show the parent of a compound that is named as a salt.

Test system: apomorphine-induced climbing
Assay: climbing mice assay: block of apomorphine-induced climbing (antipsychotic activity)
Type: in vivo, CK-1 male mice
Details: Mus musculus, ip, read-out: Antipsychotic Activity ED50
Protocol: The subject CK-1 male mice (23-27 grams) are […] under standard laboratory conditions. The mice are individually placed in wire mesh stick cages (4"×4"10") and are allowed one hour for adaptation and exploration of the new environment.
For evaluation of climbing, 3 readings are taken at 10, 20, and 30 minutes after apomorphine administration according to the following scale:
2 paws on wall (rearing)
4 paws on the wall (full climbing)
Mice consistently climbing before the injections of apomorphine will be discarded.
With full-developed apomorphine climbing, the animals are hanging onto the cage walls, rather motionless, over long periods of time. By contrast, climbs due to mere motor stimulation usually only last a few seconds.
The climbing scores are individually totaled (maximal score: 6 per mouse over 3 readings) and the total score of the control group (vehicle intraperitoneally-apomorphine subcutaneously) is set 100%.

**Q.** Which ED50 does the source give for `O=C(CCCN1CCC(O)(c2ccc(Cl)cc2)CC1)c1ccc(F)cc1` [Haloperidol, reference compound] here?
**A.** 0.11 mg/kg

Same assay, conditions: Mus musculus, ip; mice; intraperitoneal 30 minutes prior to apomorphine 1.5 mg/kg s.c.; climbing readings at 10, 20, 30 minutes; linear regression; read-out: Antipsychotic Activity ED50

**Q.** For `COc1ccccc1N1CCN(C/C=C/CN2C(=O)c3ccccc3C2=O)CC1` [E-1-(N-Phthalimido)-4-[4-(2-methoxyphenyl)-1-piperazinyl]-2-butene hydrochloride hemihydrate], which ED50 is on record?
**A.** 7.3 mg/kg

**Q.** `CCN1CCCC1CNC(=O)c1cc(S(N)(=O)=O)ccc1OC` (stereo not drawn) [Sulpiride, reference compound] was tested. Which ED50 did it give?
**A.** 4.5 mg/kg

**Q.** `COc1ccccc1N1CCN(C/C=C\CN2C(=O)CSC2=O)CC1` [Z-1-(3-Thiazolidine-2,4-dione)-4-[4-(2-methoxyphenyl)-1-piperazinyl]-2-butene dihydrochloride] was tested. Which ED50 did it give?
**A.** 19.8 mg/kg

**Q.** How did the ED50 turn out when `COc1ccccc1N1CCN(C/C=C\CN2C(=O)c3ccccc3C2=O)CC1` [Z-1-(N-Phthalimido)-4-[4-(2-methoxyphenyl)-4-piperazinyl)]-2-butene dihydrochloride] was run?
**A.** 10.3 mg/kg

**Q.** For `COc1ccccc1N1CCN(C/C=C\CN2C(=O)c3ccc(Cl)cc3C2=O)CC1` [Z-1-N-(4-Chlorophthalimido)-4-[4-(2-methoxyphenyl)-1-piperazinyl]-2-butene dihydrochloride hemihydrate], which ED50 is on record?
**A.** 15.4 mg/kg
